Measurements published in US7473527B2, “Compounds promoting delivery of genes” (The UAB Research Foundation, priority 2002, dated 2009).

Assays:
Assay type in all cases: cell-based
[1] = system: HT29 cells; experiment: Adenovirus luciferase gene transfer into confluent HT29 cells; details: for activation of adenovirus gene transfer (luciferase): 100 micromolar, procedure of Example 1 (MOI 50, assay 48 hours later), screen of 1032 NSC library compounds; for activation of adenovirus gene transfer (luciferase activity): MOI 1, 3 or 10, compound 30 nM, 300 nM, 10 uM, 30 uM or 100 uM, 48 hours
Experimental: HT29 cells are grown in 96-well plates. The cells are seeded at near confluency, about 300,000 cells per well, and infected with adenovirus 3-4 days later. […] For screening purposes, cells are grown on plastic. […] The activity of candidate compounds may be also confirmed using polarized monolayers grown on filters. Once confluent, HT29 cells are very difficult to transduce with adenoviral constructs. Fewer than 1 in 100 cells express adenoviral transgenes at multiplicity of infection (MOI) of approximately 50. A replication deficient adenovirus encoding firefly luciferase or the EGFP at an MOI of 50 for each well of cells in low serum medium is applied for 4 hours at 37° C. Confluent HeLa cells are used as a positive control. A set of cells is incubated with virus but no gene transfer activating compound as a negative control. Test drugs are incubated along with the virus. Forty-eight hours later, the cells are assayed for luciferase by standard techniques. Luciferase is assayed using a commercially available kit (Promega) which allows quantitative measurements of adenoviral gene transfer.
(§1) FIGS. 2A and 2B show a comparison of luciferase expression (y-axis, light units) vs. MOI (x-axis) in HeLa and HT29 cells infected with adenovirus under various conditions. For these studies, cells are grown in 96-well plates. The HT29 cells are seeded at near confluency, about 300,000 cells per well, and infected with adenovirus 3-4 days later. The cells are infected with luciferase-expressing, replication-deficient adenovirus at MOIs of 1, 3 or 10 by applying the virus to wells of cells in low serum medium for 4 hours at 37° C. In addition, the cells are incubated with gene transfer activating compound 675865 at a concentration of 30 nM, 300 nM, 10 uM, 30 uM or 100 uM along with the virus. A control set of cells is incubated with virus at MOIs of 1, 3 or 10, but no gene transfer activating compound is included. Forty-eight hours later, the cells are assayed for luciferase activity by standard techniques. […] FIGS. 3A and 3B present data from these experiments in which luciferase expression (y-axis, light units) is plotted vs. compound 675865 concentration (x-axis).
as §1, with “6A” for “2A”, “6B” for “2B”, “143491” for “675865”, “7A” for “3A”, “7B” for “3B”
(§2) Luciferase activity is measured using a commercially available assay kit (Bright-Glo™, Promega) designed for high throughput screening. Briefly, the Bright-Glo™ substrate is dissolved in Bright-Glo™ assay buffer at room temperature. 50 μl of the premixed Bright-Glo™ reagent is directly added to each well of the assay plate. Luminescence is measured in a microluminometer (Harta Instrument, Gaithersburg, Md.).

[2] = system: HT29 cells; experiment: Adenovirus EGFP gene transfer, fluorescence microscopy; details: 100 micromolar compound, adenovirus EGFP MOI 0.1-10, 4 hours
Experimental: HT29 or HeLa cells are grown in 96-well plates. The HT29 cells are seeded at near confluency, about 300,000 cells per well, and infected with adenovirus 3-4 days later. Confluent HeLa cells are used as a positive control. […] A replication deficient adenovirus encoding the EGFP gene is applied at an MOI of 0.1-10 to wells of cells in low serum medium for 4 hours at 37° C. Gene transfer activating compounds are incubated along with the virus at concentrations of 100 micromolar. Cells are visualized with a fluorescent microscope where green fluorescence indicates EGFP expression. A set of cells is incubated with virus but no gene transfer activating compound.

[3] = system: Calu3 cells; experiment: Adenovirus luciferase gene transfer into Calu3 cells grown on filters or plastic; details: 40 μm compound; 10 MOI (FIG. 4A)
Experimental: Lung epithelial cells which form tight junctions in vitro, Calu3, are grown on filters (Corning Costar Transwell®—polyester—pore size 0.4 μm) or plastic well allowing apical and basolateral specialization to occur.
Calu3 cells grown as described in Example 9 are incubated with adenovirus at 10 MOI and various compounds at a concentration of 40 micromolar. FIG. 4B indicates luciferase activity measured under these conditions.
Calu3 cells grown as described in Example 9 are incubated with luciferase-expressing adenovirus and various gene transfer activating compounds.
as §2

[4] = system: HT29 cells; experiment: Lentivirus luciferase gene transfer into HT29 cells; details: MOI 0.002, 0.02 or 0.2, compound 30 nM to 100 uM, 48 hours
Experimental: FIG. 5A show a comparison of luciferase expression (y-axis, light units) vs. MOI (x-axis) in HT29 cells infected with lentivirus under various conditions. For these studies, cells are grown in 96-well plates as described in Example 8. The HT29 cells are seeded at near confluency, about 300,000 cells per well, and infected with a lentivirus vector expressing luciferase 3-4 days later. The cells are infected with lentivirus at MOIs of 0.002, 0.02 or 0.2 by applying the virus to wells of cells in low serum medium for 4 hours at 37° C. In addition, the cells are incubated with gene transfer activating compound 675865 at a concentration of 30 nM, 300 nM, 10 uM, 30 uM or 100 uM along with the virus. A control set of cells is incubated with virus at MOIs of 0.002, 0.02 or 0.2 but no gene transfer activating compound is included. Forty-eight hours later, the cells are assayed for luciferase activity by standard techniques.
FIG. 5B present data from these experiments in which luciferase expression (y-axis, light units) is plotted vs. compound 675865 concentration (x-axis).
as §2, with “50 μl of the premixed Bright-Glo™ reagent is directly added to each well of the assay plate.” left out

[5] = system: HeLa and HT29 cells; experiment: Adeno-associated virus luciferase gene transfer into HeLa and HT29 cells; details: MOI 2.78, 8.33 or 22, compound 30 nM to 100 uM, 48 hours
Experimental: FIGS. 8A and 8B show a comparison of luciferase expression (y-axis, light units) vs. MOI (x-axis) in HeLa and HT29 cells infected with adeno-associated virus under various conditions. For these studies, cells are grown as described in Example 8. The HT29 cells are seeded at near confluency, about 300,000 cells per well, and infected with adenovirus 3-4 days later. The cells are infected with luciferase-expressing, adeno-associated virus at MOIs of 2.78, 8.33 or 22 by applying the virus to wells of cells in low serum medium for 4 hours at 37° C. In addition, the cells are incubated with gene transfer activating compound 143491 at a concentration of 30 nM, 300 nM, 10 uM, 30 uM or 100 uM along with the virus. A control set of cells is incubated with virus at MOIs of 2.78, 8.33 or 22, but no gene transfer activating compound is included. Forty-eight hours later, the cells are assayed for luciferase activity by standard techniques. Luciferase activity is enhanced in cells treated with compound 143491 compared with controls. […]
Luciferase activity is measured using a commercially available assay kit (Bright-Glo™, Promega) designed for high throughput screening. […] Luminescence is measured in a microluminometer (Harta Instrument, Gaithersburg, Md.).

| Compound | activation of adenovirus gene transfer (luciferase) [1] | further results |
| --- | --- | --- |
| CN(C)CCCNc1c2ccccc2nc2ccc(F)cc12.Cl [NSC 109325] | activation of adenovirus gene transfer | – |
| CN(C)C(=O)CCCc1ccc(N(CCCl)CCCl)cc1 [NSC 108613] | activation of adenovirus gene transfer | – |
| Nc1ncnc2c(C3OC(CO)C(O)C3O)nsc12 (stereo not shown) [NSC 675865] | activation of adenovirus gene transfer | activation of adenovirus gene transfer (EGFP green fluorescence) [2]: activation of adenovirus gene transfer; activation of adenovirus gene transfer (luciferase activity) [1]: activation of adenovirus gene transfer; luciferase activity in Calu3 cells infected with luciferase expressing adenovirus [3]: increased luciferase activity; luciferase activity, lentivirus vector [4]: enhancement of luciferase activity |
| O=C(CC(=O)c1cc(Cl)ccc1O)c1cccnc1 [NSC 73609] | activation of adenovirus gene transfer | – |
| COc1ccc(CC2C(=O)NC(C)C(=O)N(C)C3C(=O)N(C)C(Cc4ccc(O)c(c4)Oc4ccc(cc4)C3O)C(=O)NC(C)C(=O)NC(C)C(=O)N2C)cc1 (stereo not shown) [NSC 259968] | activation of adenovirus gene transfer | – |
| COc1cccc2c1C(=O)c1c(O)c3c(c(O)c1C2=O)CC(O)(/C(C)=N/O)CC3OC1CC(N)C(O)C(C)O1 (stereo not shown) [NSC 143491] | activation of adenovirus gene transfer | activation of adenovirus gene transfer (luciferase activity) [1]: activation of adenovirus gene transfer; luciferase activity compared with controls, adeno-associated virus vector [5]: enhanced |
| CC1=C(C)C(C#N)(C(=O)CBr)C(=N)O1 (stereo not shown) [NSC 128720] | activation of adenovirus gene transfer | – |
| CN(C)CCCN=c1c2ccccc2n(C)c2[nH]c(=O)n(C)c(=O)c12 [NSC 373989] | activation of adenovirus gene transfer | – |
| O=C(O)c1ccccc1N=Cc1ccc(N(CCCl)CCCl)cc1 [NSC 101492] | activation of adenovirus gene transfer | – |
| CCCCCCCCCCCCCC[As](=O)(O)O [NSC 106191] | activation of adenovirus gene transfer | – |
